According to US6071896A, “Suppression of thromboxane levels by percutaneous administration of aspirin” (Gundersen Clinic, Ltd., priority 1998, dated 2000):
“Also recorded” adds a separate entry of the source.

Tests used:
[1] = Plasma aspirin levels following oral aspirin; assay type: in vivo; settings: human
Protocol: (§1) The preservation of vascular cyclooxygenase is consistent with the low bioavailability of the dermal aspirin. Plasma aspirin and salicylate were determined using a highly sensitive assay that can measure levels of <0.1 ng/ml. Following oral aspirin 325 mg or 162 mg, peak plasma aspirin levels were 2.0 and 1.3 ug/ml, respectively. In contrast, following dermal aspirin, plasma levels peaked at 237±114 ng/ml and plasma salicylate peaked at 788±114 ng/ml.

[2] = physchem; assay type: physicochemical
[3] = tested on: skin; assay: Skin reactions and histology after dermal aspirin; assay type: in vivo, human
[4] = Plasma aspirin and salicylate after dermal aspirin (NICI-GCMS), Example 4; assay type: in vivo, human; settings: dermal aspirin 750 mg, single application
Protocol: as §1
Aspirin was applied in a dose of 750 mg on one limb over a 15 min interval. Samples were drawn from the opposite arm. Blood was withdrawn into heparin (10 U/ml final concentration) and potassium fluoride (5% final concentration), the latter to prevent ex vivo metabolism of aspirin by plasma esterases. The plasma was separated immediately and stored at […] until analyzed. Aspirin and its metabolite, salicylic acid, were measured by NICI-GCMS using deuterium-labelled analogues as internal standards, as previously described [Clark, supra].

[5] = tested on: TXA2 biosynthesis; assay: Urinary 2,3-dinor-TXB2 (TX-M) excretion, dermal aspirin, Example 2; assay type: in vivo, human
Protocol: Only healthy male and female volunteers were studied. The subjects were asked to avoid aspirin and any other cyclooxygenase inhibitors for the 10 days before and throughout the period of investigation. Aspirin (acetyl salicylic acid, USP) powder was dissolved in propylene glycol and either isopropyl alcohol or ethanol (1.7:1 v/v) to a final concentration of 94 mg/ml. […] The aspirin preparation was made daily immediately prior to its application Volunteers attended the clinic where the preparation was applied and were asked not to wash the area for at least 12 hours. The aspirin solution was applied to the forearm and upper arm over a 15 min interval. Volunteers received aspirin 250 mg (n=4), aspirin 750 mg (n=6) or vehicle (n=6) for 10 days and were followed for 8 days following drug withdrawal. The volunteers were aged 31-56 years, with equal numbers of male and females in each treatment group.
Blood without anticoagulant was obtained for serum TXB2, the stable metabolite of TXA2, prior to and at intervals during and following aspirin administration. The blood was allowed to clot in glass at 37° C. for 60 min and the serum removed and stored at -20° C. until analyzed. Urine was collected over 24 hours at corresponding times for measurement of 2,3-dinor-TXB2 (TX-M) and 2,3-dinor-6-keto-PGF1a (PGI-M), major enzymatic metabolites of TXA2 and PGI2, respectively [Lawson et al., Analyt. Biochem. 150:463 (1985); FitzGerald et al., N. Engl. J. Med. 310: 1065 (1984)]. Excretion of these products is an index of the in vivo formation of their parent compounds [FitzGerald et al., supra; Reilly and Fitzgerald, Blood 69: 180 (1987)]. Serum TXB2 and urinary metabolites were determined by negative ion-chemical ionization, gas chromatography-mass spectrometry (NICI-GCMS) using authentic deuterated standards, as previously described [Braden et al., supra].

[6] = tested on: PGI2 formation in response to intravenous bradykinin; assay: Urinary PGI-M excretion at rest and after bradykinin infusion, Example 3; assay type: in vivo, human; settings: for PGI-M (stim) post ASA: bradykinin-stimulated
Protocol: (§2) In an additional 4 subjects, we examined the increase in PGI2 formation in response to intravenous bradykinin prior to and following oral aspirin 75 mg or dermal aspirin 750 mg daily for 14 days. The protocol for bradykinin has been described previously [Clark, N.Engl.J.Med 325:1137 (1991)]. Volunteers were admitted after an overnight fast to the Clinical Research Center. Blood samples were obtained for serum TXB2 and the subject asked to void. Through a peripheral vein, 1 liter of normal saline was infused over 1 hour. After a further hour, bradykinin was infused in incremental doses of 100-800 ng/kg/min, each over 15 mm. The infusion was continued at the maximum tolerated dose for a total period of 2 hr. Blood pressure and heart rate were monitored continuously. Urine was collected in separate 2 hr aliquots prior to, during and following the bradykinin infusion.
(§3) ^1 The excretion of TXM and PGIM before and following dermal aspirin
(§4) 750 mg/day or oral aspirin 75 mg/day for 10 days. Urine samples were
(§5) collected over 2 hr before (rest) and following the administration of […]

[7] = tested on: pregnancy-induced hypertension and preeclamptic toxemia; settings: daily doses, third trimester, women at high risk; cited from earlier work
[8] = tested on: gastric mucosa; settings: cited from earlier work
[9] = tested on: PGI2 synthesis; settings: cited from earlier work
[10] = tested on: TX-M excretion (TXA2 biosynthesis); assay: Urinary TX-M excretion before and after dermal or oral aspirin, Example 3; assay type: in vivo, human; design: TX-M post ASA: unit not given beside the values
Protocol: as §2, §3, §4, §5

[11] = patients with rheumatic diseases

Question: With CC(=O)Oc1ccccc1C(=O)O [aspirin, acetyl salicylic acid] as the molecule, how does the Cmax ([1]; oral aspirin 75 mg, read-out: Levels following oral aspirin) read?
Answer: The Cmax was 1000 to 2000 ng/mL.

Question: And the Cmax ([1]; oral aspirin 162 mg, read-out: Peak plasma aspirin level)?
Answer: The Cmax was 1300 ng/mL.

Question: And the Cmax ([1]; oral aspirin 325 mg, read-out: Peak plasma aspirin level)?
Answer: Its Cmax is 2000 ng/mL.

Question: What about the degraded at 24 h ([2]; 24 hr, room temperature, propylene glycol and isopropyl alcohol or ethanol (1.7:1 v/v), 94 mg/ml, read-out: Salicylate detected in vehicle (aspirin stability)) of the same molecule?
Answer: Its degraded at 24 h is under 1%.

Question: What about the “Stability of aspirin in vehicle” value ([2]; propylene glycol and alcohol vehicle, 24 hr room temperature) of the same molecule?
Answer: Its value is “stable”.

Question: And the “Subjects with skin reactions, including erythema and peeling” value ([3]; dermal aspirin)?
Answer: The value was 30 % of subjects.

Question: What about the “Skin reactions with alternate day application” value ([3]; dermal, alternate day, up to 8 weeks) of the same molecule?
Answer: Its value is “without reactions for up to 8 weeks”.

Question: And the Skin histology ([3]; one subject, 10 days, 250 mg/day)?
Answer: Its Skin histology is “no histological changes”.

Question: What about the “Plasma aspirin up to three hours” value [4] of the same molecule?
Answer: The value was “barely detectable”.

Question: And the concentration at 24 h ([4]; human, plasma, topical or ocular)?
Answer: The concentration at 24 h was 4 ± 3 ng/mL.

Question: And the Cmax ([4]; human, plasma, topical or ocular, read-out: Plasma aspirin, about 3 h (peak))?
Answer: The Cmax was 237 ± 114 ng/mL.

Question: What about the concentration at 6 h ([4]; human, plasma, topical or ocular, read-out: Plasma aspirin, six hours) of the same molecule?
Answer: The concentration at 6 h was 52 ± 14 ng/mL.

Question: And the “Urinary TX-M excretion, 8 days following drug withdrawal” value ([5]; dermal aspirin 750 mg/day)?
Answer: The value was 65±9 % of pretreatment value.

Question: What about the “Urinary TX-M excretion, day 10” value ([5]; dermal aspirin 750 mg/day, n=5, p=0.002, baseline 498±76 pg/mg creatinine) of the same molecule?
Answer: Its value is 32±7 % of baseline.

Question: And the “Urinary TX-M excretion response” value ([5]; dermal aspirin 250 and 750 mg/day)?
Answer: Its value is “dose dependent reduction in the urinary excretion of TX-M”.

Question: What about the “PGI-M (rest) post ASA” value ([6]; Dermal aspirin 750 mg/day, PT 1, pre ASA 163) of the same molecule?
Answer: Its value is 138.

Question: What about the “PGI-M (rest) post ASA” value ([6]; Dermal aspirin 750 mg/day, PT 2, pre ASA 105) of the same molecule?
Answer: The value was 149.

Question: And the “PGI-M (rest) post ASA” value ([6]; Oral aspirin 75 mg/day, PT 1, pre ASA 104)?
Answer: Its value is 63.

Question: And the “PGI-M (rest) post ASA” value ([6]; Oral aspirin 75 mg/day, PT 2, pre ASA 200)?
Answer: Its value is 96.

Question: And the “PGI-M (stim) post ASA” value ([6]; Dermal aspirin 750 mg/day, PT 1, pre ASA 1520)?
Answer: Its value is 1553.

Question: And the “PGI-M (stim) post ASA” value ([6]; Dermal aspirin 750 mg/day, PT 2, pre ASA 559)?
Answer: Its value is 601.

Question: And the “PGI-M (stim) post ASA” value ([6]; Oral aspirin 75 mg/day, PT 1, pre ASA 433)?
Answer: Its value is 173.

Question: What about the “PGI-M (stim) post ASA” value ([6]; Oral aspirin 75 mg/day, PT 2, pre ASA 340) of the same molecule?
Answer: The value was 132.

Question: What about the “Resting and bradykinin-stimulated PGI-M excretion” value ([6]; dermal aspirin 750 mg/day) of the same molecule?
Answer: Its value is “PGI2 formation in response to bradykinin infusion was also unaltered; also recorded: largely unaltered; also recorded: had not effect on”.

Question: What about the “Resting and bradykinin-stimulated PGI-M excretion” value ([6]; oral aspirin 75 mg/day) of the same molecule?
Answer: The value was “suppressed basal and bradykinin-stimulated PGI-M excretion; also recorded: decrease in urinary PGI-M at rest and following stimulation with bradykinin”.

Question: What about the “Incidence of pregnancy-induced hypertension and preeclamptic toxemia” value [7] of the same molecule?
Answer: The value was “significantly reduce the incidence of pregnancy-induced hypertension and preeclamptic toxemia”.

Question: And the “Gastric mucosa damage, occult bleeding” value ([8]; applied topically to gastrointestinal tissue)?
Answer: Its value is “damages gastric mucosa and induces occult gastrointestinal bleeding”.

Question: And the “Effects on gastric mucosa” value ([8]; intravenous/parenteral vs oral)?
Answer: Its value is “less pronounced with parenteral than with oral administration”.

Question: And the “Bleeding” value ([8]; oral diluted solutions vs similar doses in tablet form)?
Answer: Its value is “considerably less bleeding than similar doses in tablet form”.

Question: What about the “Erythema of the gastric mucosa” value [8, 11] of the same molecule?
Answer: Its value is “approximately 80 % of patients”.

Question: And the Gastric erosions [8, 11]?
Answer: Its Gastric erosions is “approximately 40 % of patients”.

Question: What about the Gastric ulcer [8, 11] of the same molecule?
Answer: The Gastric ulcer was 15 % of patients.

Question: What about the “Inhibition of PGI2 synthesis, arterial and venous tissue” value ([9]; 20 mg/day for 1 week, atherosclerotic patients) of the same molecule?
Answer: Its value is 50%.

Question: And the “Urinary PGI2 metabolites / prostacyclin biosynthesis” value ([9]; approximately 40 mg/day)?
Answer: The value was “no significant effect on prostacyclin biosynthesis”.

Question: And the “Reduction of PGI2 synthesis, arterial and venous tissue” value ([9]; equally low doses (about 40 mg/day))?
Answer: The value was 50%.

Question: What about the “Bradykinin-stimulated PGI2 formation” value ([9]; oral aspirin 75 mg/day) of the same molecule?
Answer: Its value is “abolished”.

Question: And the “TX-M post ASA” value ([10]; Dermal aspirin 750 mg/day, PT 1, pre ASA 220)?
Answer: The value was 46.

Question: What about the “TX-M post ASA” value ([10]; Dermal aspirin 750 mg/day, PT 2, pre ASA 121) of the same molecule?
Answer: The value was 29.

Question: What about the “TX-M post ASA” value ([10]; Oral aspirin 75 mg/day, PT 1, pre ASA 136) of the same molecule?
Answer: Its value is 26.

Question: What about the “TX-M post ASA” value ([10]; Oral aspirin 75 mg/day, PT 2, pre ASA 111) of the same molecule?
Answer: The value was 43.

Question: And the “Urinary TX-M” value ([10]; dermal aspirin 750 mg/day)?
Answer: The value was “marked fall in urinary TX-M; also recorded: suppressed TXM”.

Question: And the “Urinary TX-M” value ([10]; oral aspirin 75 mg/day)?
Answer: The value was “marked fall in urinary TX-M”.
